From patent US8993577B2, “Cyclopropyl amide derivatives” (Astrazeneca AB, priority 2009, dated 2015)

biological target: T1, human Histamine H3 receptor (hH3R) (Homo sapiens, UniProt Q9Y5N1); assay: GTPγS binding assay, antagonist activity in membranes of CHO cells expressing hH3R; format: biochemical; settings: membranes from CHO cells transfected with hH3R; (R)-α-methyl histamine 30 nM; [35S]GTPγS 0.2 nM
T1 construct: expressed in transfected cells; host or cells: CHO (Chinese Hamster Ovary) cells; membranes
T1 sequence (Q9Y5N1 whole entry): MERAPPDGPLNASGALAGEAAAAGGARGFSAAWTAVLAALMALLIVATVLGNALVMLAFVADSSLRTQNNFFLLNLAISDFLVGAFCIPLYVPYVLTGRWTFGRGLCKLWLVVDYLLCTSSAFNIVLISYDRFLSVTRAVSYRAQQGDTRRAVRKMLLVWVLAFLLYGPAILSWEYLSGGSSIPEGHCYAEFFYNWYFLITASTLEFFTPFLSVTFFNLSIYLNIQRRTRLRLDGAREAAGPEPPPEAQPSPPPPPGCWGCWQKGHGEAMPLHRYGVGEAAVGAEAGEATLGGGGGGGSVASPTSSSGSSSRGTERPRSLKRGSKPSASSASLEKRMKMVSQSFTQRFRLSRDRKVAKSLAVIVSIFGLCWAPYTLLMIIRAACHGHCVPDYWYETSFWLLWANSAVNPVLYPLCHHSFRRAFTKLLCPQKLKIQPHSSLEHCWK
Excerpt: At least one compound of at least one formula described herein including the compounds described in the Examples hereof, when tested in at least one in vitro assay as substantially described below is active towards H3 receptors. Particularly, at least one compound described herein is an effective H3 receptor ligand. The in vitro activity may be related to in vivo activity but may not be linearly correlated with binding affinity. In the in vitro assay, a compound can be tested for its activity toward H3 receptors and IC50 obtained to determine the activity for a particular compound toward the H3 receptor.
Guanosine 5′-O-(3-[^35S]thio)triphosphate [GTPγS] Binding Assay
A GTPγS binding assay can be used to investigate antagonist properties of compounds in CHO cells (Chinese Hamster Ovary) transfected with human Histamine H3 receptor (hH3R). Membranes from CHO cells expressing hH3R (10 μg/well) are diluted in GTPγS assay buffer (20 mM Hepes, 10 mM MgCl2, 100 mM NaCl, pH 7.4) and preincubated with saponine (3 μg/ml), GDP (10 μM) and PVT-WGA SPA beads (125 μg/well) (Amersham) for 30 minutes. To determine antagonist activity, (R)-α-methyl histamine (30 nM) is added in 96 well SPA plate with [^35S]GTPγS (0.2 nM) and various concentration of H3R antagonists. The GTPγS binding assay is started with addition of the mixture membrane/saponine/GDP and incubated for 90 minutes at room temperature. The amount of bound [^35S]GTPγS is determined by using the MicroBeta Trilux counter (PerkinElmer). The percentage of [^35S]GTPγS bound in each sample is calculated as a percentage of that bound control sample incubated in absence of H3 antagonist. Duplicate determinations are obtained for each concentration, and the data are analyzed using ExcelFit4 to obtain the IC50.
Set forth in Table 1 hereinbelow for the Example 1-34 compounds are IC50 values that were generated in accordance with the GTPγS Binding Assay as essentially described hereinabove.

Compound | IC50 [nM]
3-((trans)-2-((R)-4-cyclobutyl-2-methylpiperazine-1-carbonyl)cyclopropyl)benzamide, isomer 1 [Example 28] | 5.28
3-((trans)-2-((R)-4-cyclobutyl-2-methylpiperazine-1-carbonyl)cyclopropyl)benzamide, isomer 2 [Example 29] | 576
3-((trans)-2-((S)-4-cyclobutyl-2-methylpiperazine-1-carbonyl)cyclopropyl)benzamide, isomer 1 [Example 31] | 6.96
3-((trans)-2-((S)-4-cyclobutyl-2-methylpiperazine-1-carbonyl)cyclopropyl)benzamide, isomer 2 [Example 32] | > 1110
4-((trans)-2-((R)-4-cyclobutyl-2-methylpiperazine-1-carbonyl)cyclopropyl)benzamide, isomer 2 [Example 9] | 121
4-((trans)-2-((R)-4-cyclobutyl-3-methylpiperazine-1-carbonyl)cyclopropyl)benzamide, isomer 1 [Example 21] | 6.83
4-((trans)-2-((R)-4-cyclobutyl-3-methylpiperazine-1-carbonyl)cyclopropyl)benzamide, isomer 2 [Example 22] | 1010
4-((trans)-2-((S)-4-cyclobutyl-2-methylpiperazine-1-carbonyl)cyclopropyl)benzamide, isomer 1 [Example 11] | 5.77
4-((trans)-2-((S)-4-cyclobutyl-2-methylpiperazine-1-carbonyl)cyclopropyl)benzamide, isomer 2 [Example 12] | 1320
4-((trans)-2-((S)-4-cyclobutyl-3-methylpiperazine-1-carbonyl)cyclopropyl)benzamide, isomer 1 [Example 18] | 5.98
4-((trans)-2-((S)-4-cyclobutyl-3-methylpiperazine-1-carbonyl)cyclopropyl)benzamide, isomer 2 [Example 19] | 1270
4-(trans-2-(4-cyclobutyl-3,3-dimethylpiperazine-1-carbonyl)cyclopropyl)benzamide, enantiomer 1 [Example 25] | 12
4-(trans-2-(4-cyclobutyl-3,3-dimethylpiperazine-1-carbonyl)cyclopropyl)benzamide, enantiomer 2 [Example 26] | > 1110
4-(trans-2-((R)-4-cyclobutyl-2-ethylpiperazine-1-carbonyl)cyclopropyl)benzamide, isomer 1 [Example 14] | 15.3
4-(trans-2-((R)-4-cyclobutyl-2-ethylpiperazine-1-carbonyl)cyclopropyl)benzamide, isomer 2 [Example 15] | 140
4-(trans-2-((R)-4-isopropyl-2-methylpiperazine-1-carbonyl)cyclopropyl)benzamide, isomer 1 [Example 2] | 5.66
4-(trans-2-((R)-4-isopropyl-2-methylpiperazine-1-carbonyl)cyclopropyl)benzamide, isomer 2 [Example 3] | 326

Compound | IC50 [nM]
4-(trans-2-((S)-4-isopropyl-2-methylpiperazine-1-carbonyl)cyclopropyl)benzamide, isomer 1 [Example 5] | 8.54
4-(trans-2-((S)-4-isopropyl-2-methylpiperazine-1-carbonyl)cyclopropyl)benzamide, isomer 2 [Example 6] | > 1110
CC(C)N1CCN(C(=O)[C@H]2C[C@@H]2c2ccc(C(N)=O)cc2)[C@H](C)C1 (mixture of isomers) [Example 1, 4-(trans-2-((R)-4-isopropyl-2-methylpiperazine-1-carbonyl)cyclopropyl)benzamide, diastereomeric Mixture] | 7.48
CC(C)N1CCN(C(=O)[C@H]2C[C@@H]2c2ccc(C(N)=O)cc2)[C@@H](C)C1 (mixture of isomers) [Example 4, 4-(trans-2-((S)-4-isopropyl-2-methylpiperazine-1-carbonyl)cyclopropyl)benzamide, diastereomeric mixture] | 13.5
C[C@@H]1CN(C2CCC2)CCN1C(=O)[C@H]1C[C@@H]1c1ccc(C(N)=O)cc1 (mixture of isomers) [Example 7, 4-(trans-2-((R)-4-cyclobutyl-2-methylpiperazine-1-carbonyl)cyclopropyl)benzamide, diastereomeric mixture] | 8.82
C[C@H]1CN(C2CCC2)CCN1C(=O)[C@H]1C[C@@H]1c1ccc(C(N)=O)cc1 (mixture of isomers) [Example 10, 4-(trans-2-((S)-4-cyclobutyl-2-methylpiperazine-1-carbonyl)cyclopropyl)benzamide, diastereomeric mixture] | 8.06
CC[C@@H]1CN(C2CCC2)CCN1C(=O)[C@H]1C[C@@H]1c1ccc(C(N)=O)cc1 (mixture of isomers) [Example 13, 4-(trans-2-((R)-4-cyclobutyl-2-ethylpiperazine-1-carbonyl)cyclopropyl)benzamide, diastereomeric mixture] | 29.1
CC[C@H]1CN(C2CCC2)CCN1C(=O)[C@H]1C[C@@H]1c1ccc(C(N)=O)cc1 (mixture of isomers) [Example 16, 4-(trans-2-((S)-4-cyclobutyl-2-ethylpiperazine-1-carbonyl)cyclopropyl)benzamide, diastereomeric mixture] | > 1110
C[C@H]1CN(C(=O)[C@H]2C[C@@H]2c2ccc(C(N)=O)cc2)CCN1C1CCC1 (mixture of isomers) [Example 17, 4-(trans-2-((S)-4-cyclobutyl-3-methylpiperazine-1-carbonyl)cyclopropyl)benzamide, diastereomeric mixture] | 14.2
C[C@@H]1CN(C(=O)[C@H]2C[C@@H]2c2ccc(C(N)=O)cc2)CCN1C1CCC1 (mixture of isomers) [Example 20, 4-(trans-2-((R)-4-cyclobutyl-3-methylpiperazine-1-carbonyl)cyclopropyl)benzamide, diastereomeric mixture] | 8.74
C[C@@H]1CN(C2CCC2)CCN1C(=O)[C@H]1C[C@@H]1c1cccc(C(N)=O)c1 (mixture of isomers) [Example 27, 3-(trans-2-((R)-4-cyclobutyl-2-methylpiperazine-1-carbonyl)cyclopropyl)benzamide, diastereomeric mixture] | 12
C[C@H]1CN(C2CCC2)CCN1C(=O)[C@H]1C[C@@H]1c1cccc(C(N)=O)c1 (mixture of isomers) [Example 30, 3-(trans-2-((S)-4-cyclobutyl-2-methylpiperazine-1-carbonyl)cyclopropyl)benzamide, diastereomeric mixture] | 16.3
C[C@H]1CN(C(=O)[C@H]2C[C@@H]2c2cccc(C(N)=O)c2)CCN1C1CCC1 (mixture of isomers) [Example 33, 3-(trans-2-((S)-4-cyclobutyl-3-methylpiperazine-1-carbonyl)cyclopropyl)benzamide, diastereomeric mixture] | 41
C[C@@H]1CN(C(=O)[C@H]2C[C@@H]2c2cccc(C(N)=O)c2)CCN1C1CCC1 (mixture of isomers) [Example 34, 3-(trans-2-((R)-4-cyclobutyl-3-methylpiperazine-1-carbonyl)cyclopropyl)benzamide, diastereomeric mixture] | 51.8
CC1(C)CN(C2CCC2)CCN1C(=O)[C@H]1C[C@@H]1c1ccc(C(N)=O)cc1 (racemic) [Example 23, 4-(trans-2-(4-cyclobutyl-2,2-dimethylpiperazine-1-carbonyl)cyclopropyl)benzamide, enantiomeric mixture] | > 1110
CC1(C)CN(C(=O)[C@H]2C[C@@H]2c2ccc(C(N)=O)cc2)CCN1C1CCC1 (racemic) [Example 24, 4-(trans-2-(4-cyclobutyl-3,3-dimethylpiperazine-1-carbonyl)cyclopropyl)benzamide, enantiomeric mixture] | 15.9
C[C@@H]1CN(C2CCC2)CCN1C(=O)[C@H]1C[C@@H]1c1ccc(C(N)=O)cc1 [Example 8, 4-((trans)-2-((R)-4-cyclobutyl-2-methylpiperazine-1-carbonyl)cyclopropyl)benzamide, isomer 1] | 4.94
